One may read the inhibition as the change of the read-out against control, counted positive when it falls.

In PMC9897788, “Design, synthesis and cytotoxic evaluation of novel bis-thiazole derivatives as preferential Pim1 kinase inhibitors with in vivo and in silico study” (Journal of Enzyme Inhibition and Medicinal Chemistry, 2023) one finds inhibition data, which are given here for six molecules.

Assay in all cases: NCI 60 cell one-dose screening (SRB)
Holding throughout (type): cell-based

One assay has as its system A498. Conditions: Homo sapiens; A498, Renal Cancer; single dose 10 µM, 48 h; read-out: Percentage of cellular growth inhibition. The method, boiled down: (§1)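 Cells were grown 24 h in RPMI 1640 with 5% FBS and 2 mM L-glutamine, then exposed to compounds at 10 µM for 48 h at 37 °C, 5% CO2. Fixed with TCA, they were stained with SRB and read at 515 nm. Growth % versus the no-drug control was converted to inhibition as 100 minus growth.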

A further assay deals with A549/ATCC. As to conditions: Homo sapiens, Non-Small Cell Lung Cancer, single dose 10 µM, 48 h, read-out: Percentage of cellular growth inhibition. The method, boiled down:
as §1

Another assay has as its system BT-549. Conditions: Homo sapiens; BT-549, Breast Cancer; single dose 10 µM, 48 h; read-out: Percentage of cellular growth inhibition. Summed up: as §1
A further assay relates to CAKI-1. As to conditions: Homo sapiens; CAKI-1, Renal Cancer; single dose 10 µM, 48 h; read-out: Percentage of cellular growth inhibition. The method, boiled down: as §1
In a further assay the test system is HCT-15. As to conditions: Homo sapiens; HCT-15, Colon Cancer; single dose 10 µM, 48 h; read-out: Percentage of cellular growth inhibition. The method, boiled down:
as §1

The next assay deals with HOP-92. Conditions: Homo sapiens, HOP-92, 48 h, HOP-92, Non-Small Cell Lung Cancer, single dose 10 µM, read-out: Percentage of cellular growth inhibition. The method, boiled down:
as §1

For another assay, the system named is IGROV1. As to conditions: Homo sapiens, IGROV-1; IGROV1, Ovarian Cancer; single dose 10 µM, 48 h; read-out: Percentage of cellular growth inhibition. Summed up:
as §1

The subject of a further assay is K-562. As to conditions: Homo sapiens, K562; K-562, Leukemia; single dose 10 µM, 48 h; read-out: Percentage of cellular growth inhibition. Summed up: as §1
The next assay relates to MALME-3M. As to conditions: Homo sapiens, Melanoma, single dose 10 µM, 48 h, read-out: Percentage of cellular growth inhibition. The method, boiled down:
as §1

In the next assay the test system is MDA-MB-435. As to conditions: Homo sapiens; MDA-MB-435, Melanoma; single dose 10 µM, 48 h; read-out: Percentage of cellular growth inhibition. The method, boiled down:
as §1

The test system of another assay is NCI/ADR-RES. As to conditions: Homo sapiens, Ovarian Cancer, single dose 10 µM, 48 h, read-out: Percentage of cellular growth inhibition. The method, boiled down:
as §1

In a further assay the test system is OVCAR-4. As to conditions: Homo sapiens; OVCAR-4, Ovarian Cancer; single dose 10 µM, 48 h; read-out: Percentage of cellular growth inhibition. The method, boiled down:
as §1

Another assay relates to OVCAR-5. Conditions: Homo sapiens; OVCAR-5, Ovarian Cancer; single dose 10 µM, 48 h; read-out: Percentage of cellular growth inhibition. The method, boiled down: as §1
The subject of the next assay is PC-3. As to conditions: Homo sapiens; PC-3, Prostate Cancer; single dose 10 µM, 48 h; read-out: Percentage of cellular growth inhibition. The method, boiled down: as §1
Another assay deals with SK-MEL-28. Conditions: Homo sapiens; SK-MEL-28, Melanoma; single dose 10 µM, 48 h; read-out: Percentage of cellular growth inhibition. The method, boiled down:
as §1

The subject of another assay is SK-OV-3. Conditions: Homo sapiens; SK-OV-3, Ovarian Cancer; single dose 10 µM, 48 h; read-out: Percentage of cellular growth inhibition. Summed up:
as §1

In another assay the test system is SN12C. As to conditions: Homo sapiens, Renal Cancer, single dose 10 µM, 48 h, read-out: Percentage of cellular growth inhibition. Summed up:
as §1

For the next assay, the system named is SNB-19. As to conditions: Homo sapiens; SNB-19, CNS Cancer; single dose 10 µM, 48 h; read-out: Percentage of cellular growth inhibition. Summed up: as §1
A further assay deals with TK-10. Conditions: Homo sapiens; TK-10, Renal Cancer; single dose 10 µM, 48 h; read-out: Percentage of cellular growth inhibition. Summed up: as §1
The next assay has as its system UACC-257. As to conditions: Homo sapiens; UACC-257, Melanoma; single dose 10 µM, 48 h; read-out: Percentage of cellular growth inhibition. Summed up: as §1

The structures appear in SMILES notation.

For `S=C(Nc1ccccc1)Nc1cccc(NC(=S)Nc2ccccc2)c1` [compound 7, 1,1′-(1,3-phenylene)bis(3-phenylthiourea)], the inhibition at 10 µM is -17.7% with A498; 0.1% in the assay with A549/ATCC; -13.2% in the assay with BT-549; 10.9% in the assay on CAKI-1; 0.8% in the assay with HCT-15; -15.7% in the assay with HOP-92. Moreover, the inhibition at 10 µM with IGROV1 was -3.3%; with K-562 it was 9.7%; in the assay on MALME-3M, 10.8%; with MDA-MB-435, -2.8%; in the assay with NCI/ADR-RES, -9.3%; with OVCAR-4, -6.6%. The inhibition at 10 µM was -4.9% with OVCAR-5; -24% with PC-3; -9.8% with SK-MEL-28; -29% in the assay on SK-OV-3; 4.5% in the assay with SN12C; 3.4% with SNB-19. Also, the results for the inhibition at 10 µM with TK-10 and with UACC-257 were -17.5% and -1.7%, respectively.
With `CCOc1ccc(/N=N/c2sc(Nc3cccc(Nc4nc(C)c(/N=N/c5ccc(OCC)cc5)s4)c3)nc2C)cc1` [5b, N^1,N^3-bis(5-((4-ethoxyphenyl)diazinyl)-4-methylthiazol-2-yl)benzene-1,3-diamine], the inhibition at 10 µM in the assay with A498 is 13.5%; in the assay on A549/ATCC, 12.5%; in the assay on BT-549 it was -3.7%; with CAKI-1, 8.3%; in the assay on HCT-15, 8.4%; with HOP-92 it was 25.1%. Also, the inhibition at 10 µM in the assay with IGROV1 was 9.7%; in the assay with K-562 it was -0.4%; in the assay with MALME-3M, -6.9%; in the assay with MDA-MB-435, 1.6%; in the assay with NCI/ADR-RES it was 1.5%; with OVCAR-4 it was 0.1%. The inhibition at 10 µM was found to be 9% in the assay with OVCAR-5; 6.2% in the assay on PC-3; 2.5% in the assay with SK-MEL-28; 1.1% with SK-OV-3; 4.7% with SN12C; 11.5% in the assay on SNB-19. Further, the inhibition at 10 µM in the assay with TK-10 was -0.2%; in the assay with UACC-257, -9.2%.
For `Clc1ccc(-c2csc(Nc3cccc(Nc4nc(-c5ccc(Cl)cc5)cs4)c3)n2)cc1` [6c, N^1,N^3-bis(4–(4-chlorophenyl)thiazol-2-yl)benzene-1,3-diamine], the inhibition at 10 µM was 9.8% with A498; 6.7% in the assay with A549/ATCC; -6.1% in the assay with BT-549; 43% in the assay on CAKI-1; 7.1% in the assay on HCT-15; 59.5% in the assay with HOP-92. The inhibition at 10 µM in the assay on IGROV1 was 9%; in the assay on K-562, 5.8%; with MALME-3M it was -22.4%; with MDA-MB-435, -7.1%; with NCI/ADR-RES, 4.6%; with OVCAR-4, 8.4%. Also, the inhibition at 10 µM in the assay with OVCAR-5 was 9.6%; in the assay on PC-3, 22.2%; in the assay with SK-MEL-28, -4.2%; with SK-OV-3 it was 8.3%; with SN12C, 1%; in the assay with SNB-19, 11.5%. For the same molecule, the inhibition at 10 µM was 1.4% with TK-10 and -20.4% in the assay with UACC-257.
As to `Fc1ccc(-c2cs/c(=N\c3ccccc3)n2-c2cccc(-n3c(-c4ccc(F)cc4)cs/c3=N\c3ccccc3)c2)cc1` [8b, N,N’-(3,3’-(1,3-phenylene)bis(4–(4-fluorophenyl)thiazole-3(3H)-yl-2(3H)-ylidene))dianiline], the inhibition at 10 µM in the assay on A498 was -6.4%; in the assay on A549/ATCC, 19.8%; with BT-549 it was -4.1%; in the assay with CAKI-1 it was 22.2%; in the assay on HCT-15, 21.7%; in the assay on HOP-92, 22%. Further, the inhibition at 10 µM came out at 12.9% in the assay with IGROV1; 28.8% in the assay on K-562; 7.5% in the assay on MALME-3M; 13.1% with MDA-MB-435; 10.2% in the assay with NCI/ADR-RES; 34.7% in the assay with OVCAR-4. The inhibition at 10 µM with OVCAR-5 is 14%; in the assay with PC-3 it was 32.1%; in the assay on SK-MEL-28 it was 1.7%; in the assay with SK-OV-3 it was -15.4%; with SN12C it was 7.5%; with SNB-19, 5.6%. For the same molecule, the inhibition at 10 µM with TK-10 was -16.6%; with UACC-257, -7%.
Consider `Cc1csc(Nc2cccc(Nc3nc(C)cs3)c2)n1` [3a, N^1,N^3-bis(4-methylthiazol-2-yl)benzene-1,3-diamine], for which the inhibition at 10 µM in the assay with A498 was 51.2%; in the assay with A549/ATCC, -3.9%; in the assay on BT-549, -24.4%; with CAKI-1, 23.7%; in the assay with HCT-15, 7.3%; in the assay with HOP-92 it was 41.2%. Further, the inhibition at 10 µM in the assay on IGROV1 is 7.9%; in the assay on K-562 it was 17.1%; with MALME-3M it was -18.3%; in the assay on MDA-MB-435, 4%; in the assay on NCI/ADR-RES, 20.1%; in the assay on OVCAR-4 it was 11.8%. Moreover, the inhibition at 10 µM worked out at 7.1% in the assay with OVCAR-5; 20.2% with PC-3; 10.4% with SK-MEL-28; 10.7% in the assay with SK-OV-3; 13.8% in the assay on SN12C; 1% in the assay with SNB-19. For the same molecule, the inhibition at 10 µM was -35% in the assay with TK-10 and -21.6% with UACC-257.
As for `CC(=O)c1sc(Nc2cccc(Nc3nc(C)c(C(C)=O)s3)c2)nc1C` [3b, 1,1’-(2,2’-(1,3-Phenylenebis(azanediyl))bis(4-methylthiazole-5,2-diyl))diethanone], the inhibition at 10 µM came to 72.3% with A498; 34.2% with A549/ATCC; 53.8% in the assay on BT-549; 71.9% with CAKI-1; 55.1% with HCT-15; 36.4% with HOP-92. Also, the inhibition at 10 µM with IGROV1 stood at 73.6%; in the assay on K-562 it was 59.1%; in the assay on MALME-3M, 30.2%; with MDA-MB-435, 40.9%; in the assay on NCI/ADR-RES it was 44.4%; with OVCAR-4, 48.5%. Further, the inhibition at 10 µM came out at 16.5% in the assay on OVCAR-5; 48.7% in the assay on PC-3; 28.5% with SK-MEL-28; 74.2% in the assay on SK-OV-3; 45% with SN12C; 9.1% with SNB-19. The inhibition at 10 µM in the assay on TK-10 turned out to be 46.4%; in the assay with UACC-257 it was 11.3%.
